Legend:
[1] = molecular target: T1, Prostaglandin G/H synthase 1 (Ovis aries, UniProt P05979); assay: COX Inhibitor Screening Assay; conditions: pH 8; 25 °C
T1 sequence (P05979 whole entry): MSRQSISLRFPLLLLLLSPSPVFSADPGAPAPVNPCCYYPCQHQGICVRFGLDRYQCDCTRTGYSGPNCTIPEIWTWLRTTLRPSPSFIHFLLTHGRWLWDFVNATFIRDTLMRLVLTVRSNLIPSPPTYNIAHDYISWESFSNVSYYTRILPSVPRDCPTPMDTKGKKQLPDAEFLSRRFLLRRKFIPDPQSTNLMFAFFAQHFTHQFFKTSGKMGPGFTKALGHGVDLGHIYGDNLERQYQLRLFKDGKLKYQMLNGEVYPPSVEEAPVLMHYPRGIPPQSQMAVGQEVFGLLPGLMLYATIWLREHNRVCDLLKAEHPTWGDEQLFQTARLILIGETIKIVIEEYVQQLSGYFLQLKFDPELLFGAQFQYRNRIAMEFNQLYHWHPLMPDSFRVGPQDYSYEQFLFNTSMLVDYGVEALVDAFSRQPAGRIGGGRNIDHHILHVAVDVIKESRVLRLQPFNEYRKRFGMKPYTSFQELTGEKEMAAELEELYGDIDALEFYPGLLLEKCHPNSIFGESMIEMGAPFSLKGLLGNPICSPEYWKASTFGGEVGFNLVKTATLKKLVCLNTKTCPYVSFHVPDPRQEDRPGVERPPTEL
Procedure: (§1) Dilute 3 mL of assay buffer concentrate with 27 mL of HPLC - grade water. This final assay buffer (0.1 M Tris-HCl, pH 8) should be used for dilution of heme and COX enzymes prior to assaying. This vial contains a solution of heme in dimethylsulphoxide. Dilute 88 μL of heme with 1.912 mL of diluted assay buffer prior to use. A vial contains a solution of ovine COX-1 and should be kept on ice when thawed. Dilute 200 μL of enzyme with 400 μL of diluted assay buffer and store on ice. A vial contains a solution of ovine COX-2 and should be kept on ice when thawed. Dilute 200 μL of enzyme with 400 μL of diluted assay buffer and store on ice. A vial contains a solution or arachidonic acid in ethanol. […] Use the prepared arachidonic acid solution within 30 min. A 20 μL aliquot will yield a final concentration of 100 μM in the wells. A vial contains 0.1 M potassium hydroxide (KOH). A vial contains a solution of TMPD. Background wells: add 160 μL of assay buffer, and 10 μL of heme to three wells. 100% Initial Activity wells: add 150 μL assay buffer, 10 μL of heme, and 10 μL of enzyme (either COX-1 or COX-2) to three wells. Inhibitor wells: add 150 μL of assay buffer, 10 μL of heme, and10 μL of enzyme (either COX-1 or COX-2) to three wells. Add 10 μL of inhibitor to the inhibitor wells and 10 μL of solvent (methanol, dimethylsulphoxide or ethanol) to the 100% Initial Activity wells and background wells, this process was repeated three times. Carefully shake the plate for a few seconds and incubate for five minutes at 25 °C. Add 20 μL of the colorimetric substratesolution to all the wells that you are using. Add 20 μL of arachidonic acid to all the wells you are using. Carefully shake the plate for few seconds and incubate for five minutes at 25 °C. Read the absorbance at 590 nm using a plate reader.

[2] = molecular target: T2, Prostaglandin G/H synthase 2 (Ovis aries, UniProt P79208); assay: COX Inhibitor Screening Assay; conditions: pH 8; 25 °C
T2 sequence (P79208 whole entry): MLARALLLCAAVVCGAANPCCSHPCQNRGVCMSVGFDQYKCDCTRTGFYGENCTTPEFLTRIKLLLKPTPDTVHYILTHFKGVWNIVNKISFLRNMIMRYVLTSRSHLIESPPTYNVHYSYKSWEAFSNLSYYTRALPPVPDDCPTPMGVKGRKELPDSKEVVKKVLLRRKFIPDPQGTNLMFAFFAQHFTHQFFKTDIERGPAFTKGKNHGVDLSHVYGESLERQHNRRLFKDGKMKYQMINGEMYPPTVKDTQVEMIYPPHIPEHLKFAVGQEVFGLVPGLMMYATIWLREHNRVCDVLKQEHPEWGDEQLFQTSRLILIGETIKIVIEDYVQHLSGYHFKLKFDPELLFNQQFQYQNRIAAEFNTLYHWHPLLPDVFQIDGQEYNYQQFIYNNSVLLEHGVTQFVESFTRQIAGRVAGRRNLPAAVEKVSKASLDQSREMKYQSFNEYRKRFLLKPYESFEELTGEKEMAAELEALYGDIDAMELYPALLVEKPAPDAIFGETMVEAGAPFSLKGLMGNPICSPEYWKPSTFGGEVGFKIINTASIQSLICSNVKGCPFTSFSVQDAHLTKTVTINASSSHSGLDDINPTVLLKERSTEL
Procedure: as §1

Row | SMILES | IC50 [1] [µM] | IC50 [2] [µM]
1 | O=C1OC(c2cccnc2)=N/C1=C\c1cccnc1 [2-(pyridin-3-yl)-4-(pyridin-3-ylmethylene)oxazol-5(4H)-one (IIIg)] | 0.34 | 0.075
2 | O=C1NN(c2ccccc2)C(c2cccnc2)=N/C1=C/c1cccnc1 [2-Phenyl-3-(pyridin-3-yl)-5-(pyridin-3-ylmethylene)-1,2-dihydro-1,2,4-triazin-6(5H)-one (IVg)] | 0.084 | 0.014
3 | O=C1OC(c2cccnc2)=N/C1=C\c1ccccc1O [4-(2-Hydroxybenzylidene)-2-(pyridin-3-yl)oxazol-5(4H)-one (IIIf)] | 0.44 | 0.085
4 | CN(C)c1ccc(/C=C2/N=C(c3cccnc3)OC2=O)cc1 [4-(4-(Dimethylamino)benzylidene)-2-(pyridin-3-yl)oxazol-5(4H)-one (IIIe)] | 0.08 | 0.019
5 | O=C1OC(c2cccnc2)=N/C1=C/c1ccc(Cl)cc1 [4-(4-Chlorobenzylidene)-2-(pyridin-3-yl)oxazol-5(4H)-one (IIIb)] | 0.45 | 0.106
6 | O=C1OC(c2cccnc2)=N/C1=C/c1ccc(O)cc1 [4-(4-Hydroxybenzylidene)-2-(pyridin-3-yl)oxazol-5(4H)-one (IIIc)] | 0.27 | 0.024
7 | COc1ccc(/C=C2/N=C(c3cccnc3)OC2=O)cc1 [4-(4-Methoxybenzylidene)-2-(pyridin-3-yl)oxazol-5(4H)-one (IIId)] | 0.21 | 0.059
8 | O=C1OC(c2cccnc2)=N/C1=C\c1ccccc1 [4-Benzylidene-2-(pyridin-3-yl) oxazol-5(4H)-one (IIIa)] | 0.44 | 0.077
9 | O=C1NN(c2ccccc2)C(c2cccnc2)=N/C1=C/c1ccccc1O [5-(2-Hydroxybenzylidene)-2-phenyl-3-(pyridin-3-yl)-1,2-dihydro-1,2,4-triazin-6(5H)-one (IVf)] | 0.085 | 0.017
10 | CN(C)c1ccc(/C=C2/N=C(c3cccnc3)N(c3ccccc3)NC2=O)cc1 [5-(4-(Dimethylamino)benzylidene)-2-phenyl-3-(pyridin-3-yl)-1,2-dihydro-1,2,4-triazin-6(5H)-one (IVe)] | 0.116 | 0.019
11 | O=C1NN(c2ccccc2)C(c2cccnc2)=N/C1=C/c1ccc(Cl)cc1 [5-(4-Chlorobenzylidene)-2-phenyl-3-(pyridin-3-yl)-1,2-dihydro-1,2,4-triazin-6(5H)-one (IVb)] | 0.16 | 0.034
12 | O=C1NN(c2ccccc2)C(c2cccnc2)=N/C1=C/c1ccc(O)cc1 [5-(4-Hydroxybenzylidene)-2-phenyl-3-(pyridin-3-yl)-1,2-dihydro-1,2,4-triazin-6(5H)-one (IVc)] | 0.096 | 0.019
13 | COc1ccc(/C=C2/N=C(c3cccnc3)N(c3ccccc3)NC2=O)cc1 [5-(4-Methoxybenzylidene)-2-phenyl-3-(pyridin-3-yl)-1,2-dihydro-1,2,4-triazin-6(5H)-one (IVd)] | 0.108 | –
14 | O=C1NN(c2ccccc2)C(c2cccnc2)=N/C1=C/c1ccccc1 [5-Benzylidene-2-phenyl-3-(pyridin-3-yl)-1,2-dihydro-1,2,4-triazin-6(5H)-one (IVa)] | 0.15 | 0.035
